Assay: Inhibition of Saccharomyces cerevisiae ribonucleotide reductase

IC50	Substance
44 µM	H-FTFNEDF-OH
30 µM	H-NFDDDF-OH

— ChEMBL document CHEMBL1155831, “The structural basis for peptidomimetic inhibition of eukaryotic ribonucleotide reductase: a conformationally flexible pharmacophore” (J Med Chem, 2008)
